One may read the IC50 as the point on the concentration scale where inhibition reaches its midpoint.

The target of this test is SARS-CoV-2 3CL-protease (Severe acute respiratory syndrome coronavirus 2, UniProt P0DTD1). As to the kind of experiment: SARS-CoV-2 3C-Like (3CL) Protease Fluorescence Assay (FRET). In kind it is biochemical. Particulars: SARS-CoV-2 3CL-protease 10 nM, 30 min preincubation at RT, substrate 40 μM.
As for `CC(C)C[C@@H](C(=O)N1C[C@]2(C[C@H]1C#N)C(=O)Nc1ccccc12)N(C)C(=O)c1cn(-c2ccccn2)nn1` [Example 267], the IC50 was below 100 nM.
In turn, `[2H]C([2H])([2H])N(C(=O)c1cn(C(C)(C)C)nn1)[C@@H](CCCC)C(=O)N1C[C@]2(C[C@H]1C#N)C(=O)Nc1ccccc12` [Example 393] displayed an IC50 below 100 nM.
For `Cc1ccc2cc(C(=O)N(C)[C@@H](CC(C)(C)F)C(=O)N3C[C@]4(C[C@H]3C#N)C(=O)Nc3ccccc34)[nH]c2n1` [Example 467], the IC50 was below 100 nM.
As to `CN(C(=O)CN1CCOCC1)[C@@H](CC(C)(C)F)C(=O)N1C[C@]2(C[C@H]1C#N)C(=O)Nc1ccccc12` [Example 536], the IC50 fell in the range of 100 to 1000 nM.
In the case of `CN(C(=O)CCN1CCOCC1)[C@@H](CC(C)(C)F)C(=O)N1C[C@]2(C[C@H]1C#N)C(=O)Nc1ccccc12` [Example 537] it was below 100 nM; in that of `CC(C)C[C@@H](C(=O)N1C[C@]2(C[C@H]1C#N)C(=O)Nc1ccccc12)N(C)C(=O)c1cccc2cnccc12` [Example 215], below 100 nM; in that of `CC(C)(C)C[C@H](NC(=O)Nc1ccc(F)cc1F)C(=O)N1C[C@]2(C[C@H]1C#N)C(=O)Nc1ccccc12` [Example 436], 100 to 1000 nM.
The same measure for `CCCOC[C@@H](C(=O)N1C[C@]2(C[C@H]1C#N)C(=O)Nc1ccccc12)N(C)C(=O)c1cc2c(F)cc(F)cc2[nH]1` [Example 413, N—((S)-1-((3R,5′S)-5′-cyano-2-oxospiro[indoline-3,3′-pyrrolidin]-1′-yl)-1-oxo-3-propoxypropan-2-yl)-4,6-difluoro-N-methyl-1H-indole-2-carboxamide]: below 100 nM.
In the case of `CN(C(=O)c1cc2ccncc2[nH]1)[C@@H](CC1CC1)C(=O)N1C[C@]2(C[C@H]1C#N)C(=O)Nc1ccc(Cl)cc12` [Example 458] it was below 100 nM; in that of `COc1ccc(CN(C(=O)C(F)(F)F)[C@@H](CC(C)C)C(=O)N2C[C@]3(C[C@H]2C#N)C(=O)Nc2ccccc23)cc1` [Example 429], above 1000 nM; in that of `CN(C(=O)Cc1ccccn1)[C@@H](CC(C)(C)F)C(=O)N1C[C@]2(C[C@H]1C#N)C(=O)Nc1ccc(Cl)cc12` [Example 483], below 100 nM.
The compound `CC(C)C[C@H](NC(=O)c1cc2c(F)cccc2[nH]1)C(=O)N1C[C@]2(C[C@H]1C#N)C(=O)Nc1cc(Cl)ccc12` [Example 531] yielded an IC50 below 100 nM.
Turning to `CC(C)C[C@@H](C(=O)N1C[C@]2(C[C@H]1C#N)C(=O)Nc1ccccc12)N(C)C(=O)c1cc2ccc(C(C)C)nc2[nH]1` [Example 491], the IC50 was below 100 nM.
In the case of `CC(C)C[C@@H](C(=O)N1C[C@]2(C[C@H]1C#N)C(=O)Nc1ccccc12)N(C)C(=O)c1cn(-c2ccc(F)cc2)nn1` [Example 283] it was below 100 nM; in that of `C[C@@H](OC(=O)N[C@@H](CC(C)(C)C)C(=O)N1C[C@]2(C[C@H]1C#N)C(=O)Nc1ccc(Cl)cc12)c1ccc(F)cc1` [Example 495], below 100 nM.
In the case of `CN(C(=O)c1cc2c(F)cc(F)c(F)c2[nH]1)[C@@H](CCC(C)(C)C)C(=O)N1C[C@]2(C[C@H]1C#N)C(=O)Nc1ccccc12` [Example 412] it was below 100 nM.
In the case of `CC(C)C[C@@H](C(=O)N1C[C@]2(C[C@H]1C#N)C(=O)Nc1ccccc12)N(C)C(=O)[C@@H]1CCN(C(=O)OC(C)(C)C)C1` [Example 345] it was below 100 nM; in that of `Cc1ccnc2[nH]c(C(=O)N(C)[C@@H](CC3CC3)C(=O)N3C[C@]4(C[C@H]3C#N)C(=O)Nc3ccc(Cl)cc34)cc12` [Example 460], below 100 nM; in that of `COc1ccc2[nH]c(C(=O)N(C)[C@@H](CC(C)C)C(=O)N3C[C@]4(C[C@H]3C#N)C(=O)Nc3ccccc34)nc2c1` [Example 249], below 100 nM.
With `CN(C(=O)c1cn(C2CC2)nn1)[C@@H](Cc1ccccc1)C(=O)N1C[C@]2(C[C@H]1C#N)C(=O)Nc1ccccc12` [Example 359], the IC50 was below 100 nM.
In the case of `CC(C)C[C@@H](C(=O)N1C[C@]2(C[C@H]1C#N)C(=O)Nc1ccccc12)N(C)C(=O)c1cc(Cl)c2ncc(C(F)(F)F)cc2c1` [Example 240] it was below 100 nM; in that of `CC(C)C[C@@H](C(=O)N1C[C@]2(C[C@H]1C#N)C(=O)Nc1ccccc12)N(C)C(=O)c1cc2cc(C#N)ccc2[nH]1` [Example 327], below 100 nM; in that of `CC(C)C[C@@H](C(=O)N1C[C@]2(C[C@H]1C#N)C(=O)Nc1ccccc12)N(C)C(=O)c1cccc(-c2ccccc2C#N)c1` [Example 278], below 100 nM.
The same measure for `CC(C)(C)C[C@H](NC(=O)c1cc(Cl)c2ncccc2c1)C(=O)N1C[C@]2(C[C@H]1C#N)C(=O)Nc1ccccc12` [Example 138]: below 100 nM; for `CC(C)C[C@H](NC(=O)O[C@@H](c1ccccc1)C(F)(F)F)C(=O)N1C[C@]2(C[C@H]1C#N)C(=O)Nc1ccc(F)cc12` [Example 527, (S)-2,2,2-trifluoro-1-phenylethyl ((S)-1-((3R,5′S)-5′-cyano-5-fluoro-2-oxospiro[indoline-3,3′-pyrrolidin]-1′-yl)-4-methyl-1-oxopentan-2-yl)carbamate]: below 100 nM.
In the case of `CC(C)C[C@@H](C(=O)N1C[C@]2(C[C@H]1C#N)C(=O)Nc1ccccc12)N(C)C(=O)c1cc(F)ccn1` [Example 197] it was 100 to 1000 nM; in that of `CC(C)C[C@@H](C(=O)N1C[C@]2(C[C@H]1C#N)C(=O)Nc1ccccc12)N(C)C(=O)c1cc(OC2CC2)c2nc(C3CC3)sc2c1` [Example 317], below 100 nM; in that of `CC(C)C[C@@H](C(=O)N1C[C@]2(C[C@H]1C#N)C(=O)Nc1ccc(Br)cc12)N(C)C(=O)OCc1ccccc1` [Example 517, benzyl ((S)-1-((3R,5′S)-5-bromo-5′-cyano-2-oxospiro[indoline-3,3′-pyrrolidin]-1′-yl)-4-methyl-1-oxopentan-2-yl)(methyl)carbamate], below 100 nM.
`CC(C)C[C@@H](C(=O)N1C[C@]2(C[C@H]1C#N)C(=O)Nc1ccccc12)N(C)C(=O)C1(c2ccc3c(c2)OC(F)(F)O3)CC1` [Example 329] showed an IC50 below 100 nM.
`CC(C)C[C@@H](C(=O)N1C[C@]2(C[C@H]1C#N)C(=O)Nc1ccccc12)N(C)C(=O)c1ccc(F)c(C(F)(F)F)c1` [Example 177] returned an IC50 below 100 nM.
The same measure for `CC(C)C[C@@H](C(=O)N1C[C@]2(C[C@H]1C#N)C(=O)Nc1ccccc12)N(C)C(=O)c1cn(C2CCC2)nn1` [Example 365]: below 100 nM.
In the case of `C#CCOC[C@H](NC(=O)c1cc2c(OC)cccc2[nH]1)C(=O)N1C[C@]2(C[C@H]1C#N)C(=O)Nc1ccccc12` [Example 127] it was below 100 nM; in that of `CC(C)C[C@@H](C(=O)N1C[C@]2(C[C@H]1C#N)C(=O)Nc1ccccc12)N(C)C(=O)c1cnn(-c2ccccc2C(F)(F)F)c1` [Example 353], below 100 nM.
The same measure for `CC(C)C[C@@H](C(=O)N1C[C@]2(C[C@H]1C#N)C(=O)Nc1ccccc12)N(C)C(=O)c1cnc2ccccc2c1` [Example 213]: below 100 nM.
Compound `CN(C(=O)C1(c2cccnc2)CC1)[C@@H](CC(C)(C)F)C(=O)N1C[C@]2(C[C@H]1C#N)C(=O)Nc1ccc(Cl)cc12` [Example 479] had an IC50 below 100 nM.
In turn, `CC(C)C[C@@H](C(=O)N1C[C@]2(C[C@H]1C#N)C(=O)Nc1ccccc12)N(C)C(=O)c1ccccc1Cl` [Example 162] registered an IC50 below 100 nM.
The same measure for `CCCC[C@@H](C(=O)N1C[C@]2(C[C@H]1C#N)C(=O)Nc1ccccc12)N(C)C(=O)c1cc2c(F)cc(F)cc2[nH]1` [Example 384]: below 100 nM.
Regarding `CC(C)C[C@@H](C(=O)N1C[C@]2(C[C@H]1C=O)C(=O)Nc1ccccc12)N(C)C(=O)c1cc2c(F)cc(F)cc2[nH]1` [Example 149], the IC50 is below 100 nM.
In the case of `CC(C)C[C@@H](C(=O)N1C[C@]2(C[C@H]1C#N)C(=O)Nc1ccccc12)N(C)C(=O)c1ccnn1C` [Example 203] it was below 100 nM; in that of `CCCC[C@H](NC(=O)c1cnn(C(C)(C)C)c1)C(=O)N1C[C@]2(C[C@H]1C#N)C(=O)Nc1ccccc12` [Example 131], below 100 nM.
The same measure for `CC(C)C[C@@H](C(=O)N1C[C@]2(C[C@H]1C#N)C(=O)Nc1ccccc12)N(C)C(=O)C[C@@H](Cc1cc(F)c(F)cc1F)NC(=O)OC(C)(C)C` [Example 289]: below 100 nM.
The same measure for `C[C@H](C(=O)N(C)[C@@H](CC(C)(C)C)C(=O)N1C[C@]2(C[C@H]1C#N)C(=O)Nc1ccccc12)c1cnn(C)c1` [Example 373]: below 100 nM; for `CC(C)C[C@@H](C(=O)N1C[C@]2(C[C@H]1C#N)C(=O)Nc1ccccc12)N(C)C(=O)c1c(Cl)cc(F)cc1Cl` [Example 186]: below 100 nM; for `CN(C(=O)c1cc2c(F)cc(F)cc2[nH]1)[C@@H](CC(C)(C)F)C(=O)N1C[C@]2(C[C@H]1C#N)C(=O)Nc1ccc(Cl)cc12` [Example 455]: below 100 nM.
`CC(C)C[C@@H](C(=O)N1C[C@]2(C[C@H]1C#N)C(=O)Nc1ccc(-c3ccoc3)cc12)N(C)C(=O)c1cc2c(F)cc(F)cc2[nH]1` [Example 512] gave an IC50 below 100 nM.
The same measure for `CC(C)C[C@@H](C(=O)N1C[C@]2(C[C@H]1C#N)C(=O)Nc1ccccc12)N(C)C(=O)c1cn(-c2ccc(Cl)cc2)nn1` [Example 284]: below 100 nM; for `CC(C)C[C@@H](C(=O)N1C[C@]2(C[C@H]1C#N)C(=O)Nc1ccccc12)N(C)C(=O)c1cnc2cccnc2c1` [Example 302]: 100 to 1000 nM; for `Cc1ccc2cc(C(=O)N(C)[C@@H](CC(C)C)C(=O)N3C[C@]4(C[C@H]3C#N)C(=O)Nc3ccc(Cl)cc34)[nH]c2n1` [Example 469]: below 100 nM.
The same measure for `CC(C)C[C@@H](C(=O)N1C[C@]2(C[C@H]1C#N)C(=O)Nc1ccccc12)N(C)C(=O)c1cc2cccnc2[nH]1` [Example 464]: below 100 nM; for `CC(C)C[C@@H](C(=O)N1C[C@]2(C[C@H]1C#N)C(=O)Nc1ccccc12)N(C)C(=O)N1Cc2cn[nH]c2C1` [Example 434]: 100 to 1000 nM; for `CN(C(=O)c1nc2cccnc2[nH]1)[C@@H](CC1CC1)C(=O)N1C[C@]2(C[C@H]1C#N)C(=O)Nc1ccc(Cl)cc12` [Example 463]: below 100 nM.
The same measure for `CN(C(=O)c1cc2c(OC3CC3)cccc2[nH]1)[C@@H](CC(C)(C)C)C(=O)N1C[C@]2(C[C@H]1C#N)C(=O)Nc1ccccc12` [Example 375]: below 100 nM.

The values are drawn from patent publication US12540141B2, “Spiropyrrolidine derived antiviral agents” (priority 2020, dated 2026).
